Experimental data taken from PMC3446820 (Journal of medicinal chemistry, 2012).
pIC50: −log10 of the molar value. Like-named read-outs stand apart in the source and are kept apart here.

Legend:
P. berghei [1] = conditions: mice, oral dosing; ref [29]; cited from earlier work
[2] = human liver microsomes; ref Gujjar et al. [29]; cited from earlier work
PfDHODH = biological target: T1, PfDHODH (Plasmodium falciparum, UniProt Q08210); test: biochemical; format: biochemical; conditions: for fold less potent against PfDHODH than the comparable triazolopyrimidine 1: reduction in binding affinity/activity relative to 1
T1 sequence (Q08210 24-569): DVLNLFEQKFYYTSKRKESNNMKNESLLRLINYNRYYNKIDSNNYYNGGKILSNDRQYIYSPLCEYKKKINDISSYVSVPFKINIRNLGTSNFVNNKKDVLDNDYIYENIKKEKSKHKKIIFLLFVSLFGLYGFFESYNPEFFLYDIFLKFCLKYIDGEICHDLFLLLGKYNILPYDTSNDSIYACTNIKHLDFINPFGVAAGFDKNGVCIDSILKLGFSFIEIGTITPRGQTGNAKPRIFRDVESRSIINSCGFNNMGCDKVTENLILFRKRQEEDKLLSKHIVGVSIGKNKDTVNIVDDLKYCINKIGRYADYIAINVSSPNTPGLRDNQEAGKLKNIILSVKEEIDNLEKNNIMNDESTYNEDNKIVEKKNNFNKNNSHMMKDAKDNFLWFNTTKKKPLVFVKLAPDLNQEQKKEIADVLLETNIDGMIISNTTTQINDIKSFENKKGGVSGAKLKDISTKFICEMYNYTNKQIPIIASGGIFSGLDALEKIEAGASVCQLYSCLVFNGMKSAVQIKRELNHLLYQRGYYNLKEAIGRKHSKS

[3] = In vitro metabolic stability in human liver microsomes; format: in vitro ADME
PbDHODH = PbDHODH (Plasmodium berghei, UniProt A0A509AEH5); test: PbDHODH steady-state colorimetric DCIP enzyme assay; format: biochemical; conditions: relative to 2
Chain of PbDHODH (A0A509AEH5 132-517 limits assumed): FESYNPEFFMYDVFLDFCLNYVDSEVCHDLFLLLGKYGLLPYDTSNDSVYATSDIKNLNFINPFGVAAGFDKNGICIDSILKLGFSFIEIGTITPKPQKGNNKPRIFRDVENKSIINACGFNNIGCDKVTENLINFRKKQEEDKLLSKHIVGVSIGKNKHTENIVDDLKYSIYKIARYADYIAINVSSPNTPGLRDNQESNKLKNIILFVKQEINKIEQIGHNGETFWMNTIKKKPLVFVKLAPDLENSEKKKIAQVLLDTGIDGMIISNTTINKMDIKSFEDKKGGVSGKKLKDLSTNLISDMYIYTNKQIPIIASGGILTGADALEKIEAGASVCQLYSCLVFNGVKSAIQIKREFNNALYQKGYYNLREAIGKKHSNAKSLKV

P. berghei [4] = test: P. berghei mouse in vivo efficacy model; set-up: species or system Plasmodium berghei; conditions: mice
[5] = In vitro metabolic stability in mouse liver microsomes; format: in vitro ADME
[6] = Mouse pharmacokinetics after single oral dose; format: in vivo; conditions: mice
hDHODH = hDHODH (Homo sapiens, UniProt Q02127); conditions: cited from earlier work
Chain of hDHODH (Q02127 whole entry): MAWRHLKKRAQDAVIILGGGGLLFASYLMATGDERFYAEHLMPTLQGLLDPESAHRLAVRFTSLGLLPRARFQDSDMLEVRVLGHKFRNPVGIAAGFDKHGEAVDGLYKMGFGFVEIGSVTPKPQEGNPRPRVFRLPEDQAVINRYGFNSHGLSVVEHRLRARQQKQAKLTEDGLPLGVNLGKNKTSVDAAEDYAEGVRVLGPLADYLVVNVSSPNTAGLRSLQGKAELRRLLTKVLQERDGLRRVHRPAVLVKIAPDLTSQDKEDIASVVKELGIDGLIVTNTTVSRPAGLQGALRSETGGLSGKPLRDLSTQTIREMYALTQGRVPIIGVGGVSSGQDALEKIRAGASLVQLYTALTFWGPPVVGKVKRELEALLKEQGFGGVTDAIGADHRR

P. falciparum 3D7 cells = conditions: read-out: EC50 (μM) Pf3D7; clone 3D7; ref [27],[29]; cited from earlier work

Cc1cc(Nc2ccc(C(F)(F)F)cc2)n2ncnc2n1 [Compound 2, 5-methyl-N-(4-(trifluoromethyl)phenyl)-[1,2,4]triazolo[1,5-a]pyrimidin-7-amine]
in vivo efficacy in the P. berghei model (in words) (P. berghei [1]): able to suppress parasitemia | Predicted EH [2]: 0.29

Cc1cc(Nc2ccc3ccccc3c2)n2ccnc2n1 [Compound 6, 7-Methyl-N-(naphthalen-2-yl)imidazo[1,2-a]pyrimidin-5-amine]
fold less potent against PfDHODH than the comparable triazolopyrimidine 1 (PfDHODH): 3 fold

Cc1cc(Nc2ccc3ccccc3c2)n2nccc2n1 [Compound 8, 5-Methyl-N-(naphthalen-2-yl)pyrazolo[1,5-a]pyrimidin-7-amine]
fold less potent against PfDHODH than the comparable triazolopyrimidine 1 (PfDHODH): ~ 8.5 fold

Cc1cc(NC(=O)c2ccccc2)n2ncnc2n1 [Compound 4, N-(5-methyl-[1,2,4]triazolo[1,5-a]pyrimidin-7-yl)benzamide]
pIC50 (PfDHODH): < 4.00 | PfDHODH activity (in words) (PfDHODH): loss of activity

Cc1cc(Nc2ccc(C(F)(F)F)cc2)n2ccnc2n1 [Compound 16, 7-Methyl-N-(4-(trifluoromethyl)phenyl)imidazo[1,2-a]pyrimidin-5-amine]
Putative metabolites ([3]; human liver microsomes): None detected | Predicted EH ([3]; human liver microsomes, predicted in vivo hepatic extraction ratio): 0.21 | microsomal CLint at 1 μM ([3]; human, pooled human liver microsomes): 4.7 µL/min/mg | fold better potency against PbDHODH than 2 (PbDHODH): 2 fold | in vivo efficacy in the P. berghei model (in words) (P. berghei [4]): suppresses parasites in vivo | fold more potent against PfDHODH than the equivalent triazolopyrimidine 2 (PfDHODH; relative to 2): 4 fold | Putative metabolites ([5]; mouse liver microsomes): None detected | Predicted EH ([5]; mouse liver microsomes, predicted in vivo hepatic extraction ratio): 0.59 | in vitro clearance class ([5]; mouse microsomes): intermediate | microsomal CLint at 1 μM ([5]; mouse, pooled mouse liver microsomes): 34 µL/min/mg | adverse reactions following oral administration ([6]; 10 mg/kg oral): No adverse reactions were observed | peak plasma concentrations ([6]; single oral dose 10 mg/kg): 3.9 µM | time plasma levels maintained above 1 μM ([6]; single oral dose 10 mg/kg): about 4 h

Cc1cc(NC(=O)c2ccc(C(F)(F)F)cc2)n2ncnc2n1 [Compound 5]
pIC50 (PfDHODH): < 4.00 | PfDHODH activity (in words) (PfDHODH): loss of activity

Cc1nc(Nc2ccc3ccccc3c2)c2nc[nH]c2n1 [Compound 9, 2-Methyl-N-(naphthalen-2-yl)-9H-purin-6-amine]
fold less potent against PfDHODH than the comparable triazolopyrimidine 1 (PfDHODH): ~ 9 fold

Cc1cc(Nc2ccc3ccccc3c2)n2ncnc2n1 [Compound 1, (5-methyl-[1,2,4]triazolo[1,5-a]pyrimidin-7-yl)naphthalene-2-ylamine]
in vivo efficacy in the P. berghei model (in words) (P. berghei [1]): no anti-parasite activity | IC50 (hDHODH; read-out: IC50 (μM) hDHODH, ref [27],[29]): > 100 µM | activity against human DHODH (in words) (hDHODH; ref [26]–[28]): without inhibiting human DHODH | EC50 (P. falciparum 3D7 cells): 0.076 µM

Cc1nc(Nc2ccc3ncccc3c2)c2nc[nH]c2n1 [Compound 14, N-(2-Methyl-9H-purin-6-yl)quinolin-6-amine]
pIC50 (PfDHODH): < 4.60

Cc1nc(Nc2n[nH]cc2C#N)c2nc[nH]c2n1 [Compound 15, 3-(2-Methyl-9H-purin-6-ylamino)-1H-pyrazole-4-carbonitrile]
pIC50 (PfDHODH): < 4.00 | PfDHODH activity (in words) (PfDHODH): inactive

Cc1cc(Nc2ccc3ccccc3c2)n2ncnc2c1 [Compound 7, 7-Methyl-N-(naphthalen-2-yl)-[1,2,4]triazolo[1,5-a]pyridin-5-amine]
fold less potent against PfDHODH than the comparable triazolopyrimidine 1 (PfDHODH): 100 fold

Cc1cc(Nc2ccc3ccccc3c2)c2nncn2n1 [Compound 11, 6-Methyl-N-(naphthalen-2-yl)-[1,2,4]triazolo[4,3-b]pyridazin-8-amine]
pIC50 (PfDHODH): < 4.30 | PfDHODH activity (in words) (PfDHODH): inactivated

Cc1nc(Nc2ccc3ccccc3c2)c2cn[nH]c2n1 [Compound 10, 6-Methyl-N-(naphthalen-2-yl)-1H-pyrazolo[3,4-d]pyrimidin-4-amine]
pIC50 (PfDHODH): < 4.00 | PfDHODH activity (in words) (PfDHODH): inactivated
